Data taken from PubChem BioAssay AID1919002 (Molecular Pharmacology Branch, DTP, NCI, 2023).
Several values for one entry are separate records, joined by “and”; a condition that tells them apart may be missing. Equal values may be shown once.

System: 743489-274-T-PDC complex spheroid growth
Experiment: Anticancer human tumor 743489-274-T-PDC patient-derived renal cell carcinoma cell line growth inhibition [AhR]
Conditions: for viability, T/C: stronger effect = lower value
Procedure, shortened: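 Agents were dosed in half-log steps down from roughly clinical Cmax, or from 10 microM where Cmax was unknown, alone and with AhR antagonists. Read-out: percent test/control growth of tumor spheroids containing HUVEC and MSC stromal cells.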

[1] = curve of first compound, second compound 0.1 µM
[2] = curve of first compound, second compound 0.316 µM
[3] = curve of first compound, second compound 1 µM
[4] = curve of first compound, second compound 3.16 µM
[5] = curve of first compound, second compound 10 µM
[6] = second compound 0.1 µM, first compound 0.0316 µM
[7] = second compound 0.1 µM, first compound 0.1 µM
[8] = second compound 0.1 µM, first compound 0.316 µM
[9] = second compound 0.1 µM, first compound 1 µM
[10] = second compound 0.1 µM, first compound 3.16 µM
[11] = second compound 0.1 µM, first compound 10 µM
[12] = second compound 0.316 µM, first compound 0.0316 µM
[13] = second compound 0.316 µM, first compound 0.1 µM
[14] = second compound 0.316 µM, first compound 0.316 µM
[15] = second compound 0.316 µM, first compound 1 µM
[16] = second compound 0.316 µM, first compound 3.16 µM
[17] = second compound 0.316 µM, first compound 10 µM
[18] = second compound 1 µM, first compound 0.0316 µM
[19] = second compound 1 µM, first compound 0.1 µM
[20] = second compound 1 µM, first compound 0.316 µM
[21] = second compound 1 µM, first compound 1 µM
[22] = second compound 1 µM, first compound 3.16 µM
[23] = second compound 1 µM, first compound 10 µM
[24] = second compound 3.16 µM, first compound 0.0316 µM
[25] = second compound 3.16 µM, first compound 0.1 µM
[26] = second compound 3.16 µM, first compound 0.316 µM
[27] = second compound 3.16 µM, first compound 1 µM
[28] = second compound 3.16 µM, first compound 3.16 µM
[29] = second compound 3.16 µM, first compound 10 µM
[30] = second compound 10 µM, first compound 0.0316 µM
[31] = second compound 10 µM, first compound 0.1 µM
[32] = second compound 10 µM, first compound 0.316 µM
[33] = second compound 10 µM, first compound 1 µM
[34] = second compound 10 µM, first compound 3.16 µM
[35] = second compound 10 µM, first compound 10 µM
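Also: spheroids exposed to agents for 7 days before readout.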
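For viability, T/C in this document: 100% = DMSO vehicle control wells.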

Structure (SMILES): O=C(C=Cn1cnc(-c2cc(C(F)(F)F)cc(C(F)(F)F)c2)n1)NNc1cnccn1 + Cc1cncc(-c2nc(NCCc3c[nH]c4ccccc34)c3ncn(C(C)C)c3n2)c1
- IC50 [1]: > 3 µM
- IC50 [2]: > 3 µM
- IC50 [3]: > 3 µM
- IC50 [4]: > 3 µM
- IC50 [5]: > 3 µM
- viability, T/C (second compound 0.1 µM, first compound 0.00949 µM): 103%
- viability, T/C (second compound 0.1 µM, first compound 0.03 µM): 95.6%
- viability, T/C (second compound 0.1 µM, first compound 0.0949 µM): 112%
- viability, T/C (second compound 0.1 µM, first compound 0.3 µM): 122%
- viability, T/C (second compound 0.1 µM, first compound 0.949 µM): 124%
- viability, T/C (second compound 0.1 µM, first compound 3 µM): 96.5%
- viability, T/C (second compound 0.316 µM, first compound 0.00949 µM): 96.2%
- viability, T/C (second compound 0.316 µM, first compound 0.03 µM): 92.5%
- viability, T/C (second compound 0.316 µM, first compound 0.0949 µM): 97.5%
- viability, T/C (second compound 0.316 µM, first compound 0.3 µM): 107%
- viability, T/C (second compound 0.316 µM, first compound 0.949 µM): 106%
- viability, T/C (second compound 0.316 µM, first compound 3 µM): 83.7%
- viability, T/C (second compound 1 µM, first compound 0.00949 µM): 94.5%
- viability, T/C (second compound 1 µM, first compound 0.03 µM): 102%
- viability, T/C (second compound 1 µM, first compound 0.0949 µM): 98.7%
- viability, T/C (second compound 1 µM, first compound 0.3 µM): 105%
- viability, T/C (second compound 1 µM, first compound 0.949 µM): 108%
- viability, T/C (second compound 1 µM, first compound 3 µM): 104%
- viability, T/C (second compound 3.16 µM, first compound 0.00949 µM): 111%
- viability, T/C (second compound 3.16 µM, first compound 0.03 µM): 101%
- viability, T/C (second compound 3.16 µM, first compound 0.0949 µM): 102%
- viability, T/C (second compound 3.16 µM, first compound 0.3 µM): 117%
- viability, T/C (second compound 3.16 µM, first compound 0.949 µM): 103%
- viability, T/C (second compound 3.16 µM, first compound 3 µM): 96.2%
- viability, T/C (second compound 10 µM, first compound 0.00949 µM): 80.4%
- viability, T/C (second compound 10 µM, first compound 0.03 µM): 80.2%
- viability, T/C (second compound 10 µM, first compound 0.0949 µM): 84.4%
- viability, T/C (second compound 10 µM, first compound 0.3 µM): 102%
- viability, T/C (second compound 10 µM, first compound 0.949 µM): 102%
- viability, T/C (second compound 10 µM, first compound 3 µM): 101%

Structure (SMILES): COc1ccc([C@@H](O)c2cc(-c3ncnc4cc(N5CCOCC5)ccc34)c(F)cc2Cl)nn1 + Cc1ccccc1N=Nc1ccc(NC(=O)c2ccnn2C)c(C)c1
- IC50 [1]: 2.61 µM
- IC50 [2]: 2.57 µM
- IC50 [3]: 2.34 µM
- IC50 [4]: 2.26 µM
- IC50 [5]: 1.72 µM
- viability, T/C [6]: 99.7%
- viability, T/C [7]: 87.6%
- viability, T/C [8]: 95.7%
- viability, T/C [9]: 80.1%
- viability, T/C [10]: 44.1%
- viability, T/C [11]: 31.9%
- viability, T/C [12]: 96.2%
- viability, T/C [13]: 89.1%
- viability, T/C [14]: 92.4%
- viability, T/C [15]: 77.2%
- viability, T/C [16]: 44.1%
- viability, T/C [17]: 22.4%
- viability, T/C [18]: 101%
- viability, T/C [19]: 87%
- viability, T/C [20]: 86.5%
- viability, T/C [21]: 68.9%
- viability, T/C [22]: 42.2%
- viability, T/C [23]: 22.8%
- viability, T/C [24]: 84.5%
- viability, T/C [25]: 81.5%
- viability, T/C [26]: 87.5%
- viability, T/C [27]: 77.7%
- viability, T/C [28]: 38.4%
- viability, T/C [29]: 19.1%
- viability, T/C [30]: 86.2%
- viability, T/C [31]: 90.2%
- viability, T/C [32]: 81.5%
- viability, T/C [33]: 62.2%
- viability, T/C [34]: 36.1%
- viability, T/C [35]: 18.8%

Structure (SMILES): Nc1ccccc1NC(=O)c1ccc(CNC(=O)OCc2cccnc2)cc1 + Cc1ccccc1N=Nc1ccc(NC(=O)c2ccnn2C)c(C)c1
- IC50 [1]: 4.62 µM
- IC50 [2]: 2.64 µM
- IC50 [3]: 3.67 µM
- IC50 [4]: 2.63 µM
- IC50 [5]: 2.26 µM
- viability, T/C [6]: 101%
- viability, T/C [7]: 96.6%
- viability, T/C [8]: 95.9%
- viability, T/C [9]: 80.2%
- viability, T/C [10]: 63%
- viability, T/C [11]: 25.4%
- viability, T/C [12]: 99.9%
- viability, T/C [13]: 99.7%
- viability, T/C [14]: 84%
- viability, T/C [15]: 79.7%
- viability, T/C [16]: 42.7%
- viability, T/C [17]: 23.8%
- viability, T/C [18]: 89.8%
- viability, T/C [19]: 95%
- viability, T/C [20]: 88.2%
- viability, T/C [21]: 74.3%
- viability, T/C [22]: 54.7%
- viability, T/C [23]: 24.5%
- viability, T/C [24]: 93.3%
- viability, T/C [25]: 98%
- viability, T/C [26]: 88.3%
- viability, T/C [27]: 70%
- viability, T/C [28]: 47%
- viability, T/C [29]: 28.5%
- viability, T/C [30]: 86.9%
- viability, T/C [31]: 95.9%
- viability, T/C [32]: 88.4%
- viability, T/C [33]: 66.2%
- viability, T/C [34]: 44.4%
- viability, T/C [35]: 28.6%

Structure (SMILES): O=C(C=Cc1cccc(S(=O)(=O)Nc2ccccc2)c1)NO + CC(CO)NC(=O)c1cc(-c2ccc(Cl)cc2)nn(-c2cnn(C)c2)c1=O
- IC50 [1]: 9.26 µM
- IC50 [2]: 7.72 µM
- IC50 [3]: 9.6 µM
- IC50 [4]: 8.29 µM
- IC50 [5]: 7.34 µM
- viability, T/C [6]: 97.6%
- viability, T/C [7]: 87.1%
- viability, T/C [8]: 86.9%
- viability, T/C [9]: 80.3%
- viability, T/C [10]: 76.4%
- viability, T/C [11]: 47.1%
- viability, T/C [12]: 82.4%
- viability, T/C [13]: 88.5%
- viability, T/C [14]: 74.4%
- viability, T/C [15]: 76.9%
- viability, T/C [16]: 61.8%
- viability, T/C [17]: 46.4%
- viability, T/C [18]: 82.5%
- viability, T/C [19]: 89%
- viability, T/C [20]: 84%
- viability, T/C [21]: 75.8%
- viability, T/C [22]: 62.7%
- viability, T/C [23]: 49.4%
- viability, T/C [24]: 82.5%
- viability, T/C [25]: 80%
- viability, T/C [26]: 76.2%
- viability, T/C [27]: 70.2%
- viability, T/C [28]: 59.2%
- viability, T/C [29]: 48.3%
- viability, T/C [30]: 85.3%
- viability, T/C [31]: 87.8%
- viability, T/C [32]: 83.2%
- viability, T/C [33]: 74.7%
- viability, T/C [34]: 66.9%
- viability, T/C [35]: 43.9%

Structure (SMILES): CC[C@@]1(O)C(=O)OCc2c1cc1n(c2=O)Cc2cc3c(CN(C)C)c(O)ccc3nc2-1
- viability, T/C (compound 0.000316 µM): 109% and 97.4% and 106%
- viability, T/C (compound 0.001 µM): 110% and 94.7% and 90.2%
- viability, T/C (compound 0.00316 µM): 107% and 97.5% and 93.5%
- viability, T/C (compound 0.01 µM): 100% and 103% and 93.5%
- viability, T/C (compound 0.0316 µM): 95% and 105% and 97.2%
- viability, T/C (compound 0.1 µM): 96.3% and 83.8% and 91.8%
- IC50 (curve of compound): > 0.1 µM
